# Source: patent publication US10478425B2, “5-phenylazaindole derivative having AMPK-activating activity” (Shionogi & Co., Ltd., priority 2016, dated 2019)
# Target: T1, Human AMPK α2β2γ1 (Homo sapiens, UniProt O43741+P54646)
# T1 construct: The full length cDNAs of human AMPK β2 (NM_005399.3) and human AMPK α2 (NM_006252.3); The full length cDNAs of human AMPK β2 (NM_005399.3); the full length cDNA of human AMPK γ1 (NM_002733.3) had been inserted into pET28b(+); 6×His (N); made in house; host or cells: Escherichia coli BL21 CodonPlus (DE3)-RIL
# Experiment: Test Example 2: activation of phosphorylated human AMPK α2β2γ1 (mobility-shift kinase assay, FL-Peptide 7)
# Type: biochemical
# Conditions: compound concentration showing 150% relative to the control (100%); human AMPK α2β2γ1 phosphorylated with CaMKK2
# Procedure: The full length cDNAs of human AMPK β2 (NM_005399.3) and human AMPK α2 (NM_006252.3) were inserted into the MCS1 and MCS2 of the pETDuet-1 vector to prepare a human AMPK β2 and human AMPK α2 (6×His tag at the 5′ terminus) expressing plasmid. The plasmid was cotransfected with an expression plasmid, in which the full length cDNA of human AMPK γ1 (NM_002733.3) had been inserted into pET28b(+), into BL21 CodonPlus (DE3)-RIL to obtain an expression strain. The expression strain was cultured in TB medium, followed by induction with 0.5 mM IPTG, and cultured at 25° C. for 3 hours and then harvested. After ultrasonication, supernatant was collected and applied to Histrap FF column (GE) and RESOUECE Q column (GE) to prepare 12.5 mg of purified sample containing three types of subunit from 1.8 L of broth.
# An expression vector, in which the full length cDNA of human CAMKK β (NM_172226.1) had been inserted into pGEX-6P-3, was transfected into BL21 Star (DE3). The expression strain was cultured in TB medium, followed by induction with 0.5 mM IPTG, and cultured at 25° C. for 3 hours and then harvested. After ultrasonication, supernatant was collected and applied to GSTrap FF column (GE) to prepare 14 mg of GST-fused CAMKK β from 720 ml of broth.
# Thus, phosphorylation treatment was carried out as pretreatment.
# Human AMPK α2β2γ1 in an amount to give a conversion rate of approximately 10% by reaction for 2 hours, and CaMKK2 in an amount capable of sufficiently imparting activity to AMPK for one hour were mixed in a buffer solution consisting of a 50 mM HEPES-NaOH buffer solution (pH 7.0), 100 mM NaCl, 5 mM magnesium chloride, 0.1% bovine serum albumin, 0.2 mM sodium orthovanadate(V), 1 mM ethylene glycol-bis(2-aminoethyl ether)-N,N,N′,N′-tetraacetic acid (EGTA), 5 mM disodium β-glycerophosphate, 1 mM dithiothreitol and 0.2 mM ATP, and the resulting liquid was left to stand at 25° C. for 1 to 1.5 hours to sufficiently phosphorylate AMPK.
# After that, to the enzyme liquid, which had been subjected to phosphorylation treatment, a compound dissolved in DMSO was added so as to have a 1% DMSO concentration. The resulting liquid was left to stand for 10 minutes.
# To the liquid, a substrate solution consisting of a 50 mM HEPES-NaOH buffer solution (pH 7.0), 100 mM NaCl, 10 mM magnesium chloride, 0.1% bovine serum albumin, 0.2 mM sodium orthovanadate(V), 1 mM ethylene glycol-bis(2-aminoethyl ether)-N,N,N′,N′-tetraacetic acid (EGTA), 5 mM disodium β-glycerophosphate, 2 mM dithiothreitol, 0.4 mM ATP and 3 μM FL-Peptide 7 (manufactured by Caliper Life Sciences, Inc.) was added in equal amount (10 μl in total). The resulting liquid was allowed to react at 25° C. for 2 hours, then 10 μl of 20 mM EDTA was added thereto to stop the reaction.
# To detect phosphorylated fluorescent substrates, the reaction mixture was applied to a measuring device, LabChip EZ Reader II manufactured by Caliper Life Science, Inc., for detecting fluorescence by using differences in mobility due to differences in charge. The setting conditions for the device were pressure, −1.5 PSI; upstream voltage, −2250 V; downstream voltage, −400 V; post sample buffer sip time, 40 seconds; final delay, 120 seconds; and peak order, Product First.
# A conversion rate was calculated from the peak heights of the obtained substrate and product. The conversion rate when not containing a compound was used as a control, and a concentration dependent curve was made by plotting the rate of increase in activity to the control at each concentration of a compound.
# T1 sequence (P54646 whole entry): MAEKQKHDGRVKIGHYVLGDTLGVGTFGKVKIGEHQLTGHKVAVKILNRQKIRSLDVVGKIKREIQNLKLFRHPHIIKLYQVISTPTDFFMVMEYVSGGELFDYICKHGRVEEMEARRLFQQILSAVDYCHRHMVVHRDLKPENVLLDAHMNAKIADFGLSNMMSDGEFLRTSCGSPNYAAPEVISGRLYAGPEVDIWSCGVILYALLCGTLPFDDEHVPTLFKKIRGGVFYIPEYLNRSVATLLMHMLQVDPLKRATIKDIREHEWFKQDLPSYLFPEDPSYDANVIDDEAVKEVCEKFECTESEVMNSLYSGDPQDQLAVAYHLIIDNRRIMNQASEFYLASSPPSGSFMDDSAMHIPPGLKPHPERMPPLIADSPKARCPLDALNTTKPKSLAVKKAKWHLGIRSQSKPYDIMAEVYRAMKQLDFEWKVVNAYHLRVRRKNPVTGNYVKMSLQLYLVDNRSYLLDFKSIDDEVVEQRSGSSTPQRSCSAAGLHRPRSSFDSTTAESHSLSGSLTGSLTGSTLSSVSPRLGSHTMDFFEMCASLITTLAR
# T1 sequence (O43741 whole entry): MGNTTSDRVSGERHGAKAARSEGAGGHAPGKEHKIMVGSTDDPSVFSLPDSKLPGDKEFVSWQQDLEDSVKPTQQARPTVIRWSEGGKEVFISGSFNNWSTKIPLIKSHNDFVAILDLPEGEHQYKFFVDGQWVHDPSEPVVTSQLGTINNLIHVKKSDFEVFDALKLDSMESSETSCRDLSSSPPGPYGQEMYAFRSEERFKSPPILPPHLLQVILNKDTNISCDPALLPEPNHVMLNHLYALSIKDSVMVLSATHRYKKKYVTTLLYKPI
# T1 sequence (P54619 whole entry partner): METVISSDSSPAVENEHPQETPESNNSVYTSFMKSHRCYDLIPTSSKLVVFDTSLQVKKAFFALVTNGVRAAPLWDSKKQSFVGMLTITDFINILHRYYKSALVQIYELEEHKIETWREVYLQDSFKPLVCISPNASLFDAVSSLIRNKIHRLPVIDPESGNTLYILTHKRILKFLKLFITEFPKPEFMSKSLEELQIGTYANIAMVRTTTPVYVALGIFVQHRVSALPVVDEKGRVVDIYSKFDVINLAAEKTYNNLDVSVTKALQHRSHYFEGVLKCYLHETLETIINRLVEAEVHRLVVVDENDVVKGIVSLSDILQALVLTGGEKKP
row,SMILES,EC150 [nM]
1,CCOC(=O)N[C@H]1CC[C@H](c2ccc(-c3nc4cc(O[C@@H]5CO[C@H]6[C@@H]5OC[C@H]6O)[nH]c4cc3F)cc2)CC1 [Compound I-1-14],24
2,CS(C)(=O)=Nc1ccc(-c2ccc(-c3nc4cc(O[C@H]5CCOC5)[nH]c4cc3F)cc2)cc1 [Compound I-1-46],6.6
3,CP(C)(=O)c1ccc(-c2ccc(-c3nc4cc(O[C@@H]5CO[C@H]6[C@@H]5OC[C@H]6O)[nH]c4cc3F)cc2)cc1 [Compound I-2-56],1.6
4,C[S@](=O)(=Nc1ccc(-c2ccc(-c3nc4cc(O[C@@H]5CO[C@H]6[C@@H]5OC[C@H]6O)[nH]c4cc3F)cc2)cc1)c1ccccc1 [Compound I-1-18],19
5,Clc1cc2[nH]c(O[C@H]3CCOC3)cc2nc1-c1ccc(-c2ccc(OC3CCNC3)cc2)cc1 (stereo partly shown) [Compound I-2-21],13
6,CS(=O)(=O)c1ccc(-c2ccc(-c3nc4cc(O[C@@H]5CO[C@H](CO)C5)[nH]c4cc3F)cc2)nc1 [Compound I-2-94],0.99
7,"C[S+]([O-])c1ccc(-c2ccc(-c3nc4cc(O[C@@H]5CO[C@H]6[C@@H]5OC[C@H]6O)[nH]c4cc3F)cc2)cc1 (single isomer, unassigned) [Compound I-2-08]",1.6
8,CO[C@@H]1[C@@H](CO)OC[C@H]1Oc1cc2nc(-c3ccc(-c4ccc(N=S(C)(C)=O)cc4)cc3)c(F)cc2[nH]1 [Compound I-2-38],9.2
9,O[C@@H]1CO[C@H]2[C@@H]1OC[C@H]2Oc1cc2nc(-c3ccc(-c4ccc(OC5CCNCC5)cc4)cc3)c(F)cc2[nH]1 [Compound I-2-60],2
10,CC(=O)NC1CC=C(c2ccc(-c3nc4cc(O[C@@H]5CO[C@H](CO)C5)[nH]c4cc3F)cc2)CC1 (stereo partly shown) [Compound I-2-92],0.87
11,O[C@@H]1CO[C@H]2[C@@H]1OC[C@H]2Oc1cc2nc(-c3ccc(C#CC4CCNCC4)cc3)c(F)cc2[nH]1 [Compound I-2-64],16
12,O=C(c1ccc(-c2ccc(-c3nc4cc(O[C@@H]5CO[C@H](CO)C5)[nH]c4cc3F)cc2)cc1)N1CCOCC1 [Compound I-2-81],0.78
13,CN(C)CCOc1ccc(-c2ccc(-c3nc4cc(O[C@@H]5CO[C@H]6[C@@H]5OC[C@H]6O)[nH]c4cc3F)cc2)cc1 [Compound I-1-68],2.5
14,CNS(C)(=O)=Nc1ccc(-c2ccc(-c3nc4cc(O[C@@H]5CO[C@H](CO)C5)[nH]c4cc3F)cc2)cc1 (stereo partly shown) [Compound I-2-46],2.8
15,CC(=O)Nc1ccc(-c2ccc(-c3nc4cc(O[C@@H]5CO[C@H]6[C@@H]5OC[C@H]6O)[nH]c4cc3F)cc2)cc1 [Compound I-1-35],5.9
16,O[C@@H]1CO[C@H]2[C@@H]1OC[C@H]2Oc1cc2nc(-c3ccc(-c4ccc(OC5CCOC5)cc4)cc3)c(F)cc2[nH]1 (stereo partly shown) [Compound I-2-69],13
17,COCCN(C)c1ccc(-c2ccc(-c3nc4cc(O[C@@H]5CO[C@H]6[C@@H]5OC[C@H]6O)[nH]c4cc3F)cc2)cc1 [Compound I-2-12],6.9
18,O=C(c1ccc(-c2ccc(-c3nc4cc(O[C@@H]5CO[C@H](CO)C5)[nH]c4cc3F)cc2)cc1)N1CCCC1 [Compound I-2-49],0.88

# Same assay, conditions: maximum rate of increase in activity within the measurement range, control = 100%; read-out: Emax
row,SMILES,Emax [%]
1,CCOC(=O)N[C@H]1CC[C@H](c2ccc(-c3nc4cc(O[C@@H]5CO[C@H]6[C@@H]5OC[C@H]6O)[nH]c4cc3F)cc2)CC1 [Compound I-1-14],513
2,CS(C)(=O)=Nc1ccc(-c2ccc(-c3nc4cc(O[C@H]5CCOC5)[nH]c4cc3F)cc2)cc1 [Compound I-1-46],276
3,CP(C)(=O)c1ccc(-c2ccc(-c3nc4cc(O[C@@H]5CO[C@H]6[C@@H]5OC[C@H]6O)[nH]c4cc3F)cc2)cc1 [Compound I-2-56],618
4,C[S@](=O)(=Nc1ccc(-c2ccc(-c3nc4cc(O[C@@H]5CO[C@H]6[C@@H]5OC[C@H]6O)[nH]c4cc3F)cc2)cc1)c1ccccc1 [Compound I-1-18],415
5,Clc1cc2[nH]c(O[C@H]3CCOC3)cc2nc1-c1ccc(-c2ccc(OC3CCNC3)cc2)cc1 (stereo partly shown) [Compound I-2-21],249
6,CS(=O)(=O)c1ccc(-c2ccc(-c3nc4cc(O[C@@H]5CO[C@H](CO)C5)[nH]c4cc3F)cc2)nc1 [Compound I-2-94],652
7,"C[S+]([O-])c1ccc(-c2ccc(-c3nc4cc(O[C@@H]5CO[C@H]6[C@@H]5OC[C@H]6O)[nH]c4cc3F)cc2)cc1 (single isomer, unassigned) [Compound I-2-08]",598
8,CO[C@@H]1[C@@H](CO)OC[C@H]1Oc1cc2nc(-c3ccc(-c4ccc(N=S(C)(C)=O)cc4)cc3)c(F)cc2[nH]1 [Compound I-2-38],597
9,O[C@@H]1CO[C@H]2[C@@H]1OC[C@H]2Oc1cc2nc(-c3ccc(-c4ccc(OC5CCNCC5)cc4)cc3)c(F)cc2[nH]1 [Compound I-2-60],564
10,CC(=O)NC1CC=C(c2ccc(-c3nc4cc(O[C@@H]5CO[C@H](CO)C5)[nH]c4cc3F)cc2)CC1 (stereo partly shown) [Compound I-2-92],702
11,O[C@@H]1CO[C@H]2[C@@H]1OC[C@H]2Oc1cc2nc(-c3ccc(C#CC4CCNCC4)cc3)c(F)cc2[nH]1 [Compound I-2-64],536
12,O=C(c1ccc(-c2ccc(-c3nc4cc(O[C@@H]5CO[C@H](CO)C5)[nH]c4cc3F)cc2)cc1)N1CCOCC1 [Compound I-2-81],591
13,CN(C)CCOc1ccc(-c2ccc(-c3nc4cc(O[C@@H]5CO[C@H]6[C@@H]5OC[C@H]6O)[nH]c4cc3F)cc2)cc1 [Compound I-1-68],360
14,CNS(C)(=O)=Nc1ccc(-c2ccc(-c3nc4cc(O[C@@H]5CO[C@H](CO)C5)[nH]c4cc3F)cc2)cc1 (stereo partly shown) [Compound I-2-46],699
15,CC(=O)Nc1ccc(-c2ccc(-c3nc4cc(O[C@@H]5CO[C@H]6[C@@H]5OC[C@H]6O)[nH]c4cc3F)cc2)cc1 [Compound I-1-35],432
16,COC(=O)NC1CC=C(c2ccc(-c3nc4cc(O[C@@H]5CO[C@H](CO)C5)[nH]c4cc3F)cc2)CC1 (stereo partly shown) [Compound I-2-01],376
17,O[C@@H]1CO[C@H]2[C@@H]1OC[C@H]2Oc1cc2nc(-c3ccc(-c4ccc(OC5CCOC5)cc4)cc3)c(F)cc2[nH]1 (stereo partly shown) [Compound I-2-69],557
18,COCCN(C)c1ccc(-c2ccc(-c3nc4cc(O[C@@H]5CO[C@H]6[C@@H]5OC[C@H]6O)[nH]c4cc3F)cc2)cc1 [Compound I-2-12],367
19,O=C(c1ccc(-c2ccc(-c3nc4cc(O[C@@H]5CO[C@H](CO)C5)[nH]c4cc3F)cc2)cc1)N1CCCC1 [Compound I-2-49],684
